Assay results from patent US9403830B2, “Inhibitors of leukotriene production” (Boehringer Ingelheim International GmbH, priority 2012, dated 2016).

Key:
human LTA4 hydrolase = target: T1, human LTA4 hydrolase (Homo sapiens, UniProt P09960); test: LTA4H Enzyme assay (peptidase, Arg-AMC cleavage); type: biochemical; details: LTA4H enzyme 1 nM, Arg-AMC substrate 50 μM, room temperature 1 h, fluorescence 380/460 nm
T1 sequence (P09960 1-611): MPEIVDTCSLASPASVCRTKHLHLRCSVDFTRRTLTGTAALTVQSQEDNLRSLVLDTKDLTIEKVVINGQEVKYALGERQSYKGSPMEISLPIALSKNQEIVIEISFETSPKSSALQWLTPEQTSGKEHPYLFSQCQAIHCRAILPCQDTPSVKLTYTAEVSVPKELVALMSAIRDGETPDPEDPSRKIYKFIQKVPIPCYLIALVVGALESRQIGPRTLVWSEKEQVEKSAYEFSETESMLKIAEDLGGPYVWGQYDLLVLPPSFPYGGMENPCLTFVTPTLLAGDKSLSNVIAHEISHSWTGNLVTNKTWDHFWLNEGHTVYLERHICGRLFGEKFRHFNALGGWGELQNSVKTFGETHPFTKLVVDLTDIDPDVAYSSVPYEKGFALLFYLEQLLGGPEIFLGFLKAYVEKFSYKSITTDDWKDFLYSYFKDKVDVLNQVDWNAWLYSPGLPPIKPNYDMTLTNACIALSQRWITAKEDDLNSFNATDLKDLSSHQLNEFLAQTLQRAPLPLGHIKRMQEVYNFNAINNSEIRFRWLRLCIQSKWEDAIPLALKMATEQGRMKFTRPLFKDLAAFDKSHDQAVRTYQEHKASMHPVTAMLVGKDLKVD
How it was run: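 Human LTA4H (1 nM final) incubated with compound and Arg-AMC (50 μM final) in 50 mM Tris-HCl pH 7.5, 100 mM KCl, 0.5% BSA, 1 h at room temperature. Product read as AMC fluorescence (ex 380/em 460 nm); IC50 reported.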

[1] = system: LTB4 synthesis in human whole blood; test: human whole blood (HWB) assay, inhibition of LTB4 production; type: cell-based; details: heparinized human whole blood, calcimycin 20 μM stimulation, plasma LTB4
How it was run: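 Heparinized human whole blood preincubated with compound 15 min at 37 °C, then stimulated with 20 μM (final) calcimycin for 30 min at 37 °C. Plasma LTB4 measured by antibody-based HTRF; IC50 reported.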

Row | SMILES | IC50 (human LTA4 hydrolase) [nM] | IC50 [1] [nM]
1 | c1cc(-c2cnc(Oc3ccc4nc(CN5CCCC5)ccc4c3)nc2)[nH]n1 [Example 220, 6-[5-(2H-Pyrazol-3-yl)-pyrimidin-2-yloxy]-2-pyrrolidin-1-ylmethyl-quinoline] | 1.7 | 160
2 | CC(=O)N1CCN(Cc2cc3ccc(Oc4ccc(-c5ccn[nH]5)cn4)cc3[nH]2)CC1 [Example 221, 1-(4-{6-[5-(2H-Pyrazol-3-yl)-pyridin-2-yloxy]-1H-indol-2-ylmethyl}-piperazin-1-yl)-ethanone] | 0.27 | 170
3 | CC(=O)N1CCN(Cc2cc3cc(Oc4ccc(-c5ccn[nH]5)cn4)ccc3[nH]2)CC1 [Example 222, 1-(4-{5-[5-(2H-Pyrazol-3-yl)-pyridin-2-yloxy]-1H-indol-2-ylmethyl}-piperazin-1-yl)-ethanone] | 0.73 | 230
4 | CC(=O)N1CCN(Cc2cc3cc(Oc4ccc(-c5ccn[nH]5)cn4)ccc3cn2)CC1 [Example 223, 1-(4-{6-[5-(2H-Pyrazol-3-yl)-pyridin-2-yloxy]-isoquinolin-3-ylmethyl}-piperazin-1-yl)-ethanone] | 0.94 | 230
5 | CC(=O)N1CCN(CCn2ccc3cc(Oc4ccc(-c5ccn[nH]5)cn4)ccc32)CC1 [Example 224, 1-[4-(2-{5-[5-(2H-Pyrazol-3-yl)-pyridin-2-yloxy]-indol-1-yl}-ethyl)-piperazin-1-yl]-ethanone] | 2.3 | 540
6 | c1cc(-c2ccc(Oc3ccc4[nH]c(CN5CCC(CN6CCOCC6)CC5)nc4c3)cc2)[nH]n1 [Example 225, 2-(4-Morpholin-4-ylmethyl-piperidin-1-ylmethyl)-5-[4-(2H-pyrazol-3-yl)-phenoxy]-1H-benzoimidazole] | 0.13 | 130
7 | CO[C@H]1CCN(Cc2nc3cc(Oc4ccc(-c5ccn[nH]5)cc4)ccc3[nH]2)C1 [Example 226, 2-((S)-3-Methoxy-pyrrolidin-1-ylmethyl)-5-[4-(2H-pyrazol-3-yl)-phenoxy]-1H-benzoimidazole] | 0.3 | 170
8 | c1cc(-c2ccc(Oc3ccc4[nH]c(CN5C[C@H]6CC[C@@H](C5)O6)nc4c3)cc2)[nH]n1 [Example 227, 3-{5-[4-(2H-Pyrazol-3-yl)-phenoxy]-1H-benzoimidazol-2-ylmethyl}-8-oxa-3-aza-bicyclo[3.2.1]octane] | 0.054 | 170
9 | COC1CCN(Cc2nc3cc(Oc4ccc(-c5ccn[nH]5)cc4)ccc3[nH]2)CC1 [Example 228, 2-(4-Methoxy-piperidin-1-ylmethyl)-5-[4-(2H-pyrazol-3-yl)-phenoxy]-1H-benzoimidazole] | 0.16 | 180
10 | CN(Cc1nc2cc(Oc3ccc(-c4ccn[nH]4)cc3)ccc2[nH]1)[C@H]1CCCC[C@@H]1O [Example 229, (1S,2S)-2-(Methyl-{5-[4-(2H-pyrazol-3-yl)-phenoxy]-1H-benzoimidazol-2-ylmethyl}-amino)-cyclohexanol] | 0.22 | 190
11 | CN(Cc1nc2cc(Oc3ccc(-c4ccn[nH]4)cc3)ccc2[nH]1)C1CCOCC1 [Example 230, Methyl-{5-[4-(2H-pyrazol-3-yl)-phenoxy]-1H-benzoimidazol-2-ylmethyl}-(tetrahydro-pyran-4-yl)-amine] | 0.19 | 200
12 | CC(=O)N1CCN(Cc2ccc3cc(Oc4ccc(-c5cc[nH]n5)cn4)ccc3n2)CC1 [Example 231, 1-(4-{6-[5-(1H-Pyrazol-3-yl)-pyridin-2-yloxy]-quinolin-2-ylmethyl}-piperazin-1-yl)-ethanone] | 0.55 | 150
13 | c1cc(-c2ccc(Oc3ccc4nc(OCCN5CCOCC5)sc4c3)cc2)n[nH]1 [Example 232, 2-(2-Morpholin-4-yl-ethoxy)-6-[4-(1H-pyrazol-3-yl)-phenoxy]-benzothiazole] | 1.4 | 160
14 | CN(Cc1nc2cc(Oc3ccc(-c4ccn[nH]4)cc3)ccc2[nH]1)C(=O)C1CC1 [Example 233, Cyclopropanecarboxylic acid methyl-{5-[4-(2H-pyrazol-3-yl)-phenoxy]-1H-benzoimidazol-2-ylmethyl}-amide] | 0.24 | 170
15 | CC1(C)CCN(Cc2nc3cc(Oc4ccc(-c5ccn[nH]5)cc4)ccc3[nH]2)C1=O [Example 234, 3,3-Dimethyl-1-{5-[4-(2H-pyrazol-3-yl)-phenoxy]-1H-benzoimidazol-2-ylmethyl}-pyrrolidin-2-one] | 0.26 | 180
16 | CCN(Cc1nc2cc(Oc3ccc(-c4ccn[nH]4)cc3)ccc2[nH]1)C(=O)C1CC1 [Example 235, Cyclopropanecarboxylic acid ethyl-{5-[4-(2H-pyrazol-3-yl)-phenoxy}-1H-benzoimidazol-2-ylmethyl}-amide] | 0.43 | 180
17 | COCC(=O)NC1CCN(Cc2ccc3cc(Oc4ccc(-c5cc[nH]n5)cn4)ccc3n2)CC1 [Example 236, 2-Methoxy-N-(1-{6-[5-(1H-pyrazol-3-yl)-pyridin-2-yloxy]-quinolin-2-ylmethyl}-piperidin-4-yl)-acetamide] | 0.96 | 200
18 | CC(=O)NC1CCN(Cc2ccc3cc(Oc4ccc(-c5cc[nH]n5)cn4)ccc3n2)CC1 [Example 237, N-(1-{6-[5-(1H-Pyrazol-3-yl)-pyridin-2-yloxy]-quinolin-2-ylmethyl}-piperidin-4-yl)-acetamide] | 0.84 | 210
19 | CC(=O)NC1CC2CCC(C1)N2Cc1ccc2cc(Oc3ccc(-c4cc[nH]n4)cn3)ccc2n1 (stereo not drawn) [Example 238, N-((endo)-8-{6-[5-(1H-Pyrazol-3-yl)-pyridin-2-yloxy]-quinolin-2-ylmethyl}-8-aza-bicyclo[3.2.1]oct-3-yl)-acetamide] | 0.61 | 250
20 | CC(=O)N[C@@H]1C[C@H]2CC[C@@H](C1)N2Cc1ccc2cc(Oc3ccc(-c4cc[nH]n4)cn3)ccc2n1 [Example 239, N-((exo)-8-{6-[5-(1H-Pyrazol-3-yl)-pyridin-2-yloxy]-quinolin-2-ylmethyl}-8-aza-bicyclo[3.2.1]oct-3-yl)-acetamide] | 0.43 | 260
21 | CC(=O)N1C[C@@H]2C[C@H]1CN2Cc1ccc2cc(Oc3ccc(-c4cc[nH]n4)cn3)ccc2n1 [Example 240, 1-((S)-5-{6-[5-(1H-Pyrazol-3-yl)-pyridin-2-yloxy]-quinolin-2-ylmethyl}-2,5-diaza-bicyclo[2.2.1]hept-2-yl)-ethanone] | 0.94 | 340
22 | CC(=O)N1CCN(Cc2cnc3cc(Oc4ccc(-c5ccn[nH]5)cc4)ccc3n2)CC1 [Example 241, 1-(4-{6-[4-(2H-Pyrazol-3-yl)-phenoxy]-quinoxalin-2-ylmethyl}-piperazin-1-yl)-ethanone] | 3.5 | 980
23 | O=S1(=O)CCN(Cc2ccc3cc(Oc4ccc(-c5cc[nH]n5)cn4)ccc3n2)CC1 [Example 242, 2-(1,1-Dioxo-1-λ-6-thiomorpholin-4-ylmethyl)-6-[5-(1H-pyrazol-3-yl)-pyridin-2-yloxy]-quinoline] | 1.6 | 210
24 | c1cc(-c2ccc(Oc3ccc4nc(CN5CCCC5)ccc4c3)cc2)[nH]n1 [Example 243, 6-[4-(2H-Pyrazol-3-yl)-phenoxy]-2-pyrrolidin-1-ylmethyl-quinoline] | 0.065 | 66
25 | c1cc(-c2ccc(Oc3ccc4nc(CN5CCC5)ccc4c3)cc2)[nH]n1 [Example 244, 2-Azetidin-1-ylmethyl-6-[4-(2H-pyrazol-3-yl)-phenoxy]-quinoline] | 0.048 | 120
26 | CC(=O)N1CC2CCC(C1)N2Cc1ccc2cc(Oc3ccc(-c4ccn[nH]4)cc3)ccc2n1 [Example 245, 1-(8-{6-[4-(2H-Pyrazol-3-yl)-phenoxy]-quinolin-2-ylmethyl}-3,8-diaza-bicyclo[3.2.1]oct-3-yl)-ethanone] | 0.18 | 170
27 | c1cc(-c2ccc(Oc3ccc4nc(CN5CCCC5)cn4c3)cc2)[nH]n1 [Example 246, 6-[4-(2H-Pyrazol-3-yl)-phenoxy]-2-pyrrolidin-1-ylmethyl-imidazo[1,2-a]pyridine] | 0.17 | 180
28 | CC(=O)N1CCN(Cc2ccc3cc(Oc4ccc(-c5ccn[nH]5)cc4)ccc3n2)CC1 [Example 247, 1-(4-{6-[4-(2H-Pyrazol-3-yl)-phenoxy]-quinolin-2-ylmethyl}-piperazin-1-yl)-ethanone] | 0.21 | 190
29 | CC(=O)N[C@@H]1C[C@H]2CC[C@@H](C1)N2Cc1ccc2cc(Oc3ccc(-c4ccn[nH]4)cc3)ccc2n1 [Example 248, N-((exo)-8-{6-[4-(2H-Pyrazol-3-yl)-phenoxy]-quinolin-2-ylmethyl}-8-aza-bicyclo[3.2.1]oct-3-yl)-acetamide] | 0.083 | 200
